The SangsterLogP compilation

Assay: method code SF-GLC, from DOI: 10.1584/jpestics.5.553

First: CCCCCOC(=O)C(C(=O)OCCCCC)=C1SCCS1
Second: CCCCOC(=O)C(C(=O)OCCCC)=C1SCCS1
The logP of the first is higher: 5.6 for the first, 4.6 for the second.

First: CCCCCCCOC(=O)C(C(=O)OCCCCCCC)=C1SCCS1
Second: CCCOC(=O)C(C(=O)OCCC)=C1SCCS1
The logP of the first is higher: 7.6 for the first, 3.38 for the second.

First: CSC(SC)=C(C(=O)OC(C)C)C(=O)OC(C)C
Second: CC(C)OC(=O)C(C(=O)OC(C)C)=C1SCCS1=O (stereo not given)
The logP of the first is higher: 3.38 for the first, 1.6 for the second.

Going from CC(C)(C)OC(=O)C(C(=O)OC(C)(C)C)=C1SCCS1 to COC(=O)C(C(=O)OC)=C1SCCS1, the logP falls from 4.01 to 1.51.

Going from CCOC(=O)C(C(=O)OC(C)C)=C1SCCS1 to CCOC(=O)C(C(=O)OCC)=C1SCCS1, the logP falls from 2.9 to 2.45.
